# Test results from patent US20080261994A1, “CYCLOPROPANE COMPOUNDS AND PHARMACEUTICAL USE THEREOF” (Japan Tobacco Inc., priority 2003, published 2008).
# How the values were obtained:
# Type in all cases: biochemical
# [1] = biological target: T1, aggrecanase-1 (Homo sapiens, UniProt O75173); assay: Aggrecanase-1 inhibitory action (Particle Assay, GAG release from aggrecan-containing polyacrylamide particles); conditions: Experimental Example 1; read-out: IC50 AG1
# T1 sequence (O75173 213-837): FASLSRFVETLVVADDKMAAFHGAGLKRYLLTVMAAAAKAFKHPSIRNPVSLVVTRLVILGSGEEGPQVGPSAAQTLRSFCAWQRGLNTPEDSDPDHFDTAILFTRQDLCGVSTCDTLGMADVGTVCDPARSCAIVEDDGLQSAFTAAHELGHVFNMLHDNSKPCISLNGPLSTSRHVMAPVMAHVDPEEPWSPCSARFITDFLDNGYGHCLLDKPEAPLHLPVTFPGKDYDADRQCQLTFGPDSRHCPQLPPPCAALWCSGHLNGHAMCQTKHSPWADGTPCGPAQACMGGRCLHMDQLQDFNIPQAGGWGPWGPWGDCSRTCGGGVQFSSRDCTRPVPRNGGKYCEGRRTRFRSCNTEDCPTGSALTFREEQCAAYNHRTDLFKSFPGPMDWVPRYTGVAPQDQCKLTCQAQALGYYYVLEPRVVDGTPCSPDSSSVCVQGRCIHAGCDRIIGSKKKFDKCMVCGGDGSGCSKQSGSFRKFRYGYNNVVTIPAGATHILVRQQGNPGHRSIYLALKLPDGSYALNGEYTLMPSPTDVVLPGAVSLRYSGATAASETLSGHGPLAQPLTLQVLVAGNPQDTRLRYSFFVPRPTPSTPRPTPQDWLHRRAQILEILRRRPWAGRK
# Method in brief: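 Readout was dimethylmethylene blue absorbance (595 nm) of glycosaminoglycan liberated into supernatant, calibrated with whale chondroitin sulfate. Substrate was aggrecan in polyacrylamide particles, digested 15 h at 37° C in Tris-HCl; TC50 (μM) derived from inhibition relative to no-enzyme and no-inhibitor controls.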
# [2] = biological target: T2, MMP-1 (Homo sapiens, UniProt P03956); assay: MMP-1 inhibitory action (Type I collagen Activity Measurement kit, FITC-labeled collagen type I); conditions: Experimental Example 2; read-out: IC50 MMP1
# T2 sequence (P03956 100-469): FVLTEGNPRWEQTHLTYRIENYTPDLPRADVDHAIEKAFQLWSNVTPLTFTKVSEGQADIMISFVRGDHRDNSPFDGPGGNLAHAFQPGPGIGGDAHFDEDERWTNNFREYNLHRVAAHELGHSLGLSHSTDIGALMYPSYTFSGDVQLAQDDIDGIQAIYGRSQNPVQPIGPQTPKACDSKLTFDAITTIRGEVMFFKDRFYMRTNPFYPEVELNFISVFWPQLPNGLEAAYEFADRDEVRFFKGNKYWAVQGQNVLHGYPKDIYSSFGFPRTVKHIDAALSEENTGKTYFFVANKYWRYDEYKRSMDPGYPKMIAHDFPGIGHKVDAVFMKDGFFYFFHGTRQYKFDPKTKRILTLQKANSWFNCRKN
# [3] = biological target: T3, Recombinant Human MMP-13 (Homo sapiens, UniProt P45452); assay: MMP-13 inhibitory activity (MMP-13 specific fluorescent substrate with quencher); conditions: Experimental Example 3; read-out: IC50 MMP13
# T3 construct: purchased R&D systems 511-MM
# Method in brief: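 IC50 (μM) derived from % inhibition, normalised to wells without enzyme and without inhibitor, fluorescence read at 325/405 nm. Enzyme and compound preceded addition of the quenched 7-MCA…DPA substrate; Tris-HCl buffer, 25 °C for 1 h, acetic-acid stop.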
SMILES,IC50 [1] [µM],IC50 [2] [µM],IC50 [3] [µM]
CC1[C@H](c2ccccc2)[C@]1(NS(=O)(=O)N1CCN(c2ccc(C(F)(F)F)cc2)C(=O)C1)C(=O)O (stereo partly drawn) [Example 2-504],≥ 1,≥ 1,< 1
CC1[C@H](c2ccccc2)[C@]1(NS(=O)(=O)N1Cc2ccc(Br)cc2C1)C(=O)O (stereo partly drawn) [Example 2-505],≥ 1,≥ 1,< 1
C[C@]1(c2ccccc2)C[C@@]1(NS(=O)(=O)c1ccc(-n2cc(C(F)(F)F)cn2)cc1)C(=O)O [Example 2-506],≥ 1,< 1,< 0.1
CC1[C@H](c2ccccc2)[C@]1(NS(=O)(=O)c1ccc(-n2cc(C(F)(F)F)cn2)cc1)C(=O)O (stereo partly drawn) [Example 2-507],≥ 1,< 1,< 0.1
CC1C(c2ccccc2)C1(NS(=O)(=O)c1ccc(Cc2ccccc2)s1)C(=O)O (stereo not drawn) [Example 2-508],≥ 1,≥ 1,≥ 1
CC1C(c2ccccc2)C1(NS(=O)(=O)c1ccc(-c2cccc(O)c2)s1)C(=O)O (stereo not drawn) [Example 2-509],< 1,≥ 1,< 0.1
CC(C)OC(=O)N1CCN(S(=O)(=O)N[C@@]2(C(=O)O)C[C@@H]2c2ccccc2)CC1 [Example 2-510],≥ 1,≥ 1,≥ 1
CC(C)CCN1CCN(S(=O)(=O)N[C@@]2(C(=O)O)C[C@@H]2c2ccccc2)CC1 [Example 2-511],≥ 1,≥ 1,≥ 1
CCNC(=O)N1CCN(S(=O)(=O)N[C@@]2(C(=O)O)C[C@@H]2c2ccccc2)CC1 [Example 2-512],≥ 1,≥ 1,≥ 1
CC(C)CC(=O)N1CCN(S(=O)(=O)N[C@@]2(C(=O)O)C[C@@H]2c2ccccc2)CC1 [Example 2-513],≥ 1,≥ 1,≥ 1
CC1[C@H](c2ccccc2)[C@]1(NS(=O)(=O)c1ccc(-n2ccc(C(F)(F)F)n2)s1)C(=O)O (stereo partly drawn) [Example 2-514],< 1,≥ 1,< 1
CN(c1ccccc1)c1ccc(S(=O)(=O)N[C@@]2(C(=O)O)C[C@]2(C)c2ccccc2)s1 [Example 2-515],≥ 1,≥ 1,≥ 1
COc1cc(-c2ccc(S(=O)(=O)N[C@@]3(C(=O)O)C[C@]3(C)c3ccccc3)s2)ccc1Cl [Example 2-516],< 1,≥ 1,< 1
CC1[C@H](c2ccccc2)[C@]1(NS(=O)(=O)c1ccc(-c2ccc3nonc3c2)s1)C(=O)O (stereo partly drawn) [Example 2-517],< 0.1,≥ 1,< 1
C[C@]1(c2ccccc2)C[C@@]1(NS(=O)(=O)c1cn2cc(-c3ccccc3)nc2s1)C(=O)O [Example 2-518],< 1,< 1,< 0.1
COCc1cn2cc(S(=O)(=O)N[C@@]3(C(=O)O)C[C@]3(C)c3ccccc3)sc2n1 [Example 2-519],≥ 1,≥ 1,≥ 1
CC1[C@H](c2ccccc2)[C@]1(NS(=O)(=O)c1cn2cc(Cn3cc(Cl)cn3)nc2s1)C(=O)O (stereo partly drawn) [Example 2-520],≥ 1,≥ 1,≥ 1
CCOC(=O)c1cnn(-c2ccc(S(=O)(=O)N[C@@]3(C(=O)O)C(C)[C@@H]3c3ccccc3)s2)c1 (stereo partly drawn) [Example 2-521],< 1,≥ 1,< 0.1

# Now from value to compound:
IC50 [1] [µM],IC50 [2] [µM],IC50 [3] [µM],SMILES
≥ 1,≥ 1,< 0.1,CC1[C@H](c2ccccc2)[C@]1(NS(=O)(=O)c1ccc(-n2cc(C(=O)O)cn2)s1)C(=O)O (stereo partly drawn) [Example 2-522]
< 1,< 1,< 0.1,CC1[C@H](c2ccccc2)[C@]1(NS(=O)(=O)c1ccc(-n2cc(C(C)(C)O)cn2)s1)C(=O)O (stereo partly drawn) [Example 2-523]
< 0.1,< 0.1,< 0.1,CC1[C@H](c2ccccc2)[C@]1(NS(=O)(=O)c1ccc(-n2cc(S(C)(=O)=O)cn2)s1)C(=O)O (stereo partly drawn) [Example 2-524]
< 0.1,< 0.1,< 0.1,CC1C(c2ccccc2)C1(NS(=O)(=O)c1ccc(-c2cccc(CO)c2)s1)C(=O)O (stereo not drawn) [Example 2-525]
≥ 1,≥ 1,≥ 1,C[C@]1(c2ccccc2)C[C@@]1(NS(=O)(=O)c1ccc(-c2ccncc2)s1)C(=O)O [Example 2-526]
≥ 1,≥ 1,≥ 1,C[C@]1(c2ccccc2)C[C@@]1(NS(=O)(=O)c1ccc(-c2cccnc2)s1)C(=O)O [Example 2-527]
≥ 1,≥ 1,≥ 1,COc1cc2c(cc1OC)CN(S(=O)(=O)N[C@@]1(C(=O)O)C(C)[C@@H]1c1ccccc1)CC2 (stereo partly drawn) [Example 2-528]
≥ 1,≥ 1,≥ 1,CC1[C@H](c2ccccc2)[C@]1(NS(=O)(=O)N1CCN(C(=O)NCc2ccccc2)CC1)C(=O)O (stereo partly drawn) [Example 2-529]
≥ 1,≥ 1,≥ 1,CC(C)CCN1CCN(S(=O)(=O)N[C@@]2(C(=O)O)C(C)[C@@H]2c2ccccc2)CC1 (stereo partly drawn) [Example 2-530]
≥ 1,≥ 1,≥ 1,CC1[C@H](c2ccccc2)[C@]1(NS(=O)(=O)N1CCN(CCc2ccccc2)CC1)C(=O)O (stereo partly drawn) [Example 2-531]
≥ 1,≥ 1,≥ 1,CC1[C@H](c2ccccc2)[C@]1(NS(=O)(=O)N1CCN(C(=O)OCc2ccccc2)CC1)C(=O)O (stereo partly drawn) [Example 2-532]
≥ 1,≥ 1,≥ 1,CC1[C@H](c2ccccc2)[C@]1(NS(=O)(=O)N1CCN(c2ccncc2)CC1)C(=O)O (stereo partly drawn) [Example 2-533]
≥ 1,≥ 1,≥ 1,COCCN1CCN(S(=O)(=O)N[C@@]2(C(=O)O)C(C)[C@@H]2c2ccccc2)CC1 (stereo partly drawn) [Example 2-534]
≥ 1,≥ 1,≥ 1,CC1[C@H](c2ccccc2)[C@]1(NS(=O)(=O)N1CCc2ccccc2C1)C(=O)O (stereo partly drawn) [Example 2-535]
≥ 1,≥ 1,≥ 1,COc1ccc(CN2CCN(S(=O)(=O)N[C@@]3(C(=O)O)C(C)[C@@H]3c3ccccc3)CC2)cc1 (stereo partly drawn) [Example 2-536]
≥ 1,≥ 1,≥ 1,CC1[C@H](c2ccccc2)[C@]1(NS(=O)(=O)N1CCN(C/C=C/c2ccccc2)CC1)C(=O)O (stereo partly drawn) [Example 2-537]
≥ 1,≥ 1,< 1,CC1[C@H](c2ccccc2)[C@]1(NS(=O)(=O)N1Cc2ccc(Cl)cc2C1)C(=O)O (stereo partly drawn) [Example 2-538]
< 0.1,< 1,< 0.1,COCC1C(c2ccccc2)C1(NS(=O)(=O)c1ccc(-c2cc(C(F)(F)F)on2)s1)C(=O)O (stereo not drawn) [Example 2-539]
≥ 1,≥ 1,< 1,CC1C(c2ccccc2)C1(NS(=O)(=O)c1ccc(-c2cccc(CN3CCOCC3)c2)s1)C(=O)O (stereo not drawn) [Example 2-540]
≥ 1,≥ 1,≥ 1,CC1C(c2ccccc2)C1(NS(=O)(=O)c1ccc(CCc2ccccc2)s1)C(=O)O (stereo not drawn) [Example 2-541]
< 1,≥ 1,< 0.1,CC1[C@H](c2ccccc2)[C@]1(NS(=O)(=O)c1ccc(-n2cccn2)s1)C(=O)O (stereo partly drawn) [Example 2-542]
< 0.1,< 0.1,< 0.1,CC1[C@H](c2ccccc2)[C@]1(NS(=O)(=O)c1ccc(-n2cc(I)cn2)s1)C(=O)O (stereo partly drawn) [Example 2-543]
< 1,≥ 1,< 1,C[C@]1(c2ccccc2)C[C@@]1(NS(=O)(=O)c1ccc(-c2ccc3c(c2)OC(F)(F)O3)s1)C(=O)O [Example 2-544]
